According to US5342980A, “Fungicidal agents” (American Cyanamid Company, priority 1992, dated 1994):

Legend:
[1] = test system: Rhizoctonia solani; experiment: Control of soil borne diseases, Cucumber damping-off by Rhizoctonia (CURS); assay type: in vivo; conditions: 14-18 days after treatment; note: ranges in brackets are in %
Protocol: (§1) Pasturized soil (100 mL) is added to 6 cm diameter plastic cups without drainage holes and covered with pathogen contaminated soil (30 mL). Ten germinated cucumber seeds are planted on the contaminated soil and the seeds are covered with pasteurized soil (20 mL). Test compounds are dissolved in acetone, diluted with deionized water containing about 0.05% TWEEN 20®, and applied to the pots by drenching the soil surface with 15 mL of test solution. The pots are placed in a greenhouse for disease development. The pots are watered lightly until plants emerge from the soil surface. Disease evaluations are made 14-18 days after treatment according to the rating scale shown below.

[2] = test system: Pythium aphanidermantum; experiment: Control of soil borne diseases, Cucumber damping-off by Pythium (CUPA); assay type: in vivo; conditions: 14-18 days after treatment; note: ranges in brackets are in %
Protocol: as §1

[3] = test system: Venturia inaequalis; experiment: In vivo fungicidal evaluation, Apple Scab (AS); conditions: 200 ppm, plants sprayed before inoculation
[4] = test system: Alternaria solani; experiment: In vivo fungicidal evaluation, Tomato Early Blight (TEB); conditions: 200 ppm, plants sprayed before inoculation
[5] = test system: Fusarium oxysporum f. sp. cucumerinum; experiment: In vitro fungicidal evaluation, growth inhibition (FUSOXC); assay type: cell-based; set-up: scale not given here; conditions: 25 ppm, 3-4 days at 21° C.
Protocol: (§2) Test compounds are dissolved in acetone and dispersed into cell well plates containing a suspension of ground fungal mycelia in a nutrient broth. Assay plates are incubated for 3-4 days at 21° C. Growth inhibition is measured visually and is rated using the following scale:
(§3) Untreated controls, solvent blanks and reference standards are included in each test.
(§4) Assay fungi include the plant pathogens, Pythium ultimum (Pythul); Rhizoctonia solani (Rhizso); Fusarium oxysporum f. sp. cucumerinum (Fusoxc); and Pseudocercosporella herpotrichoides (Psdche).
(§5) When more than one test is run, the data are averaged.

[6] = test system: Puccinia recondita f. sp. tritici; experiment: In vivo fungicidal evaluation, Wheat Leaf Rust (WLR); conditions: 200 ppm, plants sprayed before inoculation
[7] = test system: Cercospora beticola; experiment: In vivo fungicidal evaluation, Sugar Beet Cercospora (SBC); conditions: plants sprayed before inoculation
[8] = test system: Erysiphe graminis f. sp. tritici; experiment: In vivo fungicidal evaluation, Wheat Powdery Mildew (WPM); conditions: 200 ppm, plants sprayed before inoculation
[9] = test system: Fusarium oxysporium f. sp. cucumerinum; experiment: Control of soil borne diseases, Cucumber Fusarium Wilt (CUFO); assay type: in vivo; conditions: 14-18 days after treatment; note: ranges in brackets are in %
Protocol: as §1

[10] = test system: Botrytis cinerea; experiment: In vivo fungicidal evaluation, Pepper Botrytis (PB); conditions: 200 ppm, plants sprayed before inoculation
[11] = test system: Mycosphaerella fijiensis; experiment: Control of banana black sigatoka on banana seedlings; assay type: in vivo; conditions: 200 ppm, leaves sprayed to run-off; 28 to 40 days post inoculation
Protocol: Test compounds are dissolved in acetone and diluted with distilled water containing about 0.05% TWEEN 20® to give a concentration of 200 ppm. Banana seedlings at the 6-7 leaf stage are sprayed with test solution on the upper and lower surfaces of the 3 youngest, unfurled leaves to the point of run-off, dried and inoculated with a spore suspension of Mycosphaerella fijiensis. The inoculated banana seedlings are placed outdoors in a plastic tunnel lined with wet jute sacks. The temperature is maintained between about 25° and 32° C. and the relative humidity is maintained between about 85% and 100%. After five days, the banana seedlings are transferred to a partially shaded screenhouse, surrounded with wet jute sacks and misted daily. When disease symptom development is optimal, typically 28 to 40 days post inoculation, the banana seedlings are rated for disease control according to the rating scale shown below. Each test contains inoculated treated plants, inoculated untreated plants and a reference standard. When more than one test is run, the data are averaged.

[12] = test system: Pythium ultimum; experiment: In vitro fungicidal evaluation, growth inhibition (PYTHUL); assay type: cell-based; set-up: scale not given here; conditions: 25 ppm, 3-4 days at 21° C.
Protocol: as §2, §3, §4, §5

[13] = test system: Plasmopara viticola; experiment: In vivo fungicidal evaluation, Grape Downy Mildew (GDM); conditions: 200 ppm, plants sprayed before inoculation
[14] = test system: Rhizoctonia solani; experiment: In vitro fungicidal evaluation, growth inhibition (RHIZSO); assay type: cell-based; set-up: scale not given here; conditions: 25 ppm, 3-4 days at 21° C.
Protocol: as §2, §3, §4, §5

[15] = test system: Rhizoctonia solani; experiment: In vivo fungicidal evaluation, Rice Sheath Blight (RSB); conditions: 400 ppm, plants sprayed before inoculation
[16] = test system: Pyricularia oryzae; assay type: in vivo; conditions: 200 ppm, plants sprayed before inoculation
[17] = test system: Pseudocercosporella herpotrichoides; experiment: In vitro fungicidal evaluation, growth inhibition (PSDCHE); assay type: cell-based; set-up: scale not given here; conditions: 25 ppm, 3-4 days at 21° C.
Protocol: as §2, §3, §4, §5

[18] = test system: Pseudocercosporella herpotrichoides; experiment: In vivo fungicidal evaluation, Wheat Eyespot (WES); conditions: 400 ppm, plants sprayed before inoculation
[19] = test system: Cercospora arachidicola; experiment: In vivo fungicidal evaluation, Peanut Cercospora Early Leaf Spot (PCE); conditions: 400 ppm, plants sprayed before inoculation

SMILES	disease control rating, CURS ([1]; 2.5 kg/ha soil drench)	disease control rating, CURS ([1]; 5.0 kg/ha soil drench)	disease control rating, CURS ([1]; 10.0 kg/ha soil drench)	disease control rating, CUPA ([2]; 2.5 kg/ha soil drench)	disease control rating, CUPA ([2]; 5.0 kg/ha soil drench)	disease control rating, CUPA ([2]; 10.0 kg/ha soil drench)	disease control rating, AS [3]	disease control rating, TEB [4]	growth inhibition rating, FUSOXC [5]	disease control rating, WLR [6]	disease control rating, SBC ([7]; 200 ppm)	disease control rating, SBC ([7]; 400 ppm)	disease control rating, WPM [8]	disease control rating, CUFO ([9]; 2.5 kg/ha soil drench)	disease control rating, CUFO ([9]; 5.0 kg/ha soil drench)	disease control rating, CUFO ([9]; 10.0 kg/ha soil drench)	disease control rating, PB [10]	Control of Banana Black Sigatoka (rating) [11]	growth inhibition rating, PYTHUL [12]	disease control rating, GDM [13]	other results
CN(O)C(=S)C(=O)C(C)(C)C [N,3,3-trimethyl-2-oxo-1-thiobutyrohydroxamic acid]	2 (15-25)	5 (60-70)	7 (90)	2 (15-25)	2 (15-25)	3 (30-40)	5.0	2.7	0.0	1.7	7.0	3.5	6.3	1 (5-10)	0 (0)	1 (5-10)	3.0	3.7	6.0	4.3	growth inhibition rating, RHIZSO [14]: 6.0; disease control rating, RSB [15]: 0.3; disease control rating, RB [16]: 2.7; growth inhibition rating, PSDCHE [17]: 1.0
CN([O-])C(=S)C(=O)C(C)(C)C.CN([O-])C(=S)C(=O)C(C)(C)C.[Cu+2] [N,3,3-trimethyl-2-oxo-1-thiobutyrohydroxamic acid copper(+2) chelate]	5 (60-70)	6 (75-85)	9 (100)	1 (5-10)	2 (15-25)	1 (5-10)	8.0	9.0	4.8	6.5	7.2	6.1	5.0	3 (30-40)	5 (60-70)	6 (75-85)	6.5	6.3	8.0	7.7	disease control rating, WES [18]: 6.7; disease control rating, PCE [19]: 7.0; growth inhibition rating, RHIZSO [14]: 8.5; disease control rating, RSB [15]: 4.7; disease control rating, RB [16]: 0.0; growth inhibition rating, PSDCHE [17]: 8.5
